Key:
BBB = experiment: Blood cell biomarkers, serum markers and BBB extravasation in mice treated with nicotine, METH and gp120; details: for Evans blue and albumin extravasation into the brain / blood levels of CD133+/CD146+ endothelial PCs (EPCs) / blood levels of circulating Astrocytes (cAstr) / blood levels of circulating BMECs (cBMECs), CD146+/S100B+: treated mice
Procedure: Nicotine tartrate (NT) and methamphetamine (METH) were purchased from Sigma-Aldrich (St. Louis, Mo.). Dynabeads® M-450 Tosylactivated was obtained from Invitrogen (Carlsbad, Calif.) and utilized for magnetic bead extraction. Ulexeuropaeus 1 (UEA I) lectin and mounting medium with 4′,6-diamidino-2-phenylindole (DAPI) were purchased from Vector (Buringame, Calif.). HIV-1 gp120 was purchased from Immunodiagnostics (Woburn, Mass.). Serum levels of molecular markers were determined by ELISA using antibodies and antigens from Creative Biomart (New York, N.Y.) (S100B) and ProteinTech (Chicago, Ill.) (ubiquitin C-terminal hydrolase 1, UCHL1). The Mfsd 2a antibody was purchased from Santa Cruz Biotechnology, Inc. (Dallas, TEXAS). All primary antibodies (Ab) were purchased from the commercial sources: a rabbit anti-α7 nAChR Ab from Genescript (Piscataway, N.J.); a rat anti-mouse Ly-6G (Gr-I) Ab; a mouse anti-CD44 Ab (sc-7297), a rabbit anti-actin (sc-7210), and a rabbit anti-GLUT1 Ab from Santa Cruz Biotechnology (Santa Cruz, Calif.); a rat anti-mouse Ly-6G (Gr-I) Ab FITC-conjugated and an anti-mouse CD146 Ab FITC-conjugated from eBiosciences (San Diego, Calif.), a rabbit anti-SIOOB Ab rhodamine-conjugated from BD Biosciences, and a rabbit anti-CD133 Ab rhodamine-conjugated from Abbiotec (San Diego, Calif.). Transwell filters (3 μm pore size, 6.5 mm diameter), blood plates and CBA assay kit were purchased from BD Biosciences (San Jose, Calif.). Chemicals were purchased from Sigma-Aldrich (St. Louis, Mo.) unless otherwise noted.
Mouse cBMECs were isolated with UIexeuropaeus 1 (UEA 1) lectin-coated Dynabeads as known by one of ordinary skill in the art. The beads were prepared according to the manufacturer's instructions (Invitrogen) and re-suspended in Hanks' balanced salt solution (HBSS. Invitrogen Corp., Carlsbad, Calif., USA) plus 5% fetal calf serum (HBSS+5% FCS) to a final concentration of 4×10^8 beads/mi. Mouse cBMECs in whole blood were affinity captured at 4TC with UEA UEA-1 coated Dynabeads. To eliminate non-specific cell binding to the beads, the cell suspensions were flushed through the pipette tip during the washing steps and then suspended in PBS by using a magnetic particle concentrator (MPC). The bound cells were incubated with 0.5M fucose for 10 min at room temperature to release the beads from target cells. The beads were then washed 5 times with HBSS+5% FBS and collected with the MPC. Then the suspensions were collected and centrifuged. The pellet was collected and affinity captured at 4-C with Msd2a-precoated Dynabeads. After blocking and washing, the cells conjugated to the beads were fixed with 2% paraformaldehyde and 0.25% glutaradehyde for 30 minutes. Then the FITC-conjugated CD146 antibody (BMECs specific marker, used for cBMEC identification) was added and incubated with the beads-bound cells overnight (dark). At last, DAPI was added and incubated with the beads-bound cells for 30 min. The cells (10 ul) were transferred to the cell counter, and counted under a florescence microscope.
Mouse astrocytes were isolated with Concanavalin A (ConA)-coated magnetic beads as known by one of ordinary skill in the art. Dynabeads™ beads were prepared according to the manufacturer's instructions (Invitrogen) and re-suspended in Hanks' balanced salt solution (HBSS, Invitrogen Corp., Carlsbad, Calif., USA) plus 5% fetal calf serum (HBSS+5% FCS) to a final concentration of 4×10^8 beads/ml. Mouse astrocytes in whole blood were affinity captured at 4° C. with ConA coated Dynabeads™. To eliminate non-specific cell binding to the beads, the cell suspensions were flushed through the pipette tip during the washing steps and then suspended in PBS by using a magnetic particle concentrator (MPC). The bound cells were incubated with 0.5M fucose for 10 min at room temperature to release the beads from target cells. The beads were then washed 5 times with HBSS+5% FBS and collected with the MPC. Then the suspensions were collected and centrifuged. […]

cAstr and cBMECs = experiment: cAstr and cBMEC density in peripheral blood of mice treated with gp120 and METH; type: in vivo, mouse; details: vs controls without treatment (CON)
Excerpt: (§1) Then the suspensions were collected and centrifuged.

α7 nAChR = biological target: T1, α7 nAChR (Mus musculus, UniProt P49582); experiment: Memantine effect on E. coli K1 (E44)-induced cAstr/cBMEC shedding in neonatal mice; type: in vivo; details: neonatal (10 day-old) mice intraperitoneally injected with E44 and treated with MEM, P<0.001
T1 construct: endogenous in cells; host or cells: live neonatal (10 day-old) mice, in vivo; C57BL/6J is the strain stated for the animal experiments in general
Excerpt: as §1
As α7 nAChR plays an important role in CNS Inflammation induced by microbial and non-microbial factors, we have proposed that turnover and shedding of astrocytes and BMECs could be regulated by α7 nAChR. To test this hypothesis, the correlation of α7 nAChR with cAstr/cBMEC shedding and CNS inflammation induced by meningitic E. coli K1 (E44) was examined an α7 nAChR antagonist memantine (MEM) described in the experimental methods herein. In this study, neonatal (10 day-old) mice were intraperitoneally injected with E44 and treated with MEM.

T1 sequence (P49582 23-502): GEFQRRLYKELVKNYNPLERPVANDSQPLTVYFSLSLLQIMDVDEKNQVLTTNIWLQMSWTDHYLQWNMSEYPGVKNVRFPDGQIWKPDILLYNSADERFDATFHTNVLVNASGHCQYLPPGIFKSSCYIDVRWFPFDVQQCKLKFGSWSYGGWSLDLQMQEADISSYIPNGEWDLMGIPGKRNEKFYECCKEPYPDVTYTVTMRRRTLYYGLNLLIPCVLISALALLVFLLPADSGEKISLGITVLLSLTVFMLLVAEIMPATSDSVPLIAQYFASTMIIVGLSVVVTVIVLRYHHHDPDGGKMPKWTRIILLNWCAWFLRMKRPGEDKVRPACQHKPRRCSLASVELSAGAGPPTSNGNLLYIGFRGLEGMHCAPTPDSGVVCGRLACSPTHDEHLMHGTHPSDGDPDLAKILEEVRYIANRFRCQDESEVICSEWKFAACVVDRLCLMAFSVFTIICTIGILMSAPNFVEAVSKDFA

`CN[C@@H](C)Cc1ccccc1` [METH, methamphetamine] was tested, and the “Evans blue and albumin extravasation into the brain” value (BBB) was “enhanced”, the “blood levels of CD133+/CD146+ endothelial PCs (EPCs)” value (BBB) was “increased blood levels” and the “blood levels of circulating Astrocytes (cAstr)” value (BBB) was “increased blood levels”. The “blood levels of circulating BMECs (cBMECs), CD146+/S100B+” value (BBB) was “increased blood levels”, the “Astr (cAstr) shedding” value (cAstr and cBMECs; FIG. 6A) was “significantly induce” and the cBMEC shedding (cAstr and cBMECs; FIG. 6B) was “significantly induce”.
In the case of `CC12CC3CC(C)(C1)CC(N)(C3)C2` [MEM, memantine], the “shedding of cAstr (blood level)” value (α7 nAChR) is reported as “significantly block”, the “shedding of cBMECs (blood level)” value (α7 nAChR) is reported as “significantly block” and the “shedding of cAstr (blood level)” value (α7 nAChR; listed as memantine) is reported as “reduce”. The “shedding of cBMECs (blood level)” value (α7 nAChR; listed as memantine) was “reduce”.
In the case of `CN1CCCC1c1cccnc1.O=C(O)C(O)C(O)C(=O)O` (stereo not shown) [nicotine, Nicotine tartrate], the “serum levels of S100B” value (BBB; mice, ELISA) is reported as “significantly increase”, the “serum levels of ubiquitin C-terminal hydrolase 1” value (BBB; mice, ELISA) is reported as “significantly increase” and the “Evans blue and albumin extravasation into the brain” value (BBB) is reported as “enhanced”. For the same compound, the “blood levels of CD133+/CD146+ endothelial PCs (EPCs)” value (BBB) was “increased blood levels”, the “blood levels of circulating Astrocytes (cAstr)” value (BBB) was “increased blood levels” and the “blood levels of circulating BMECs (cBMECs), CD146+/S100B+” value (BBB) was “increased blood levels”.
